Test results published in patent US11427548B2 (Arvinas Operations, Inc., priority 2015, dated 2022).
Like-named read-outs stand apart in the source and are kept apart here.

Target: T1, Androgen Receptor (Homo sapiens, UniProt P10275)
T1 construct: endogenous in cells; host or cells: VCaP cells
T1 sequence (P10275 1-920): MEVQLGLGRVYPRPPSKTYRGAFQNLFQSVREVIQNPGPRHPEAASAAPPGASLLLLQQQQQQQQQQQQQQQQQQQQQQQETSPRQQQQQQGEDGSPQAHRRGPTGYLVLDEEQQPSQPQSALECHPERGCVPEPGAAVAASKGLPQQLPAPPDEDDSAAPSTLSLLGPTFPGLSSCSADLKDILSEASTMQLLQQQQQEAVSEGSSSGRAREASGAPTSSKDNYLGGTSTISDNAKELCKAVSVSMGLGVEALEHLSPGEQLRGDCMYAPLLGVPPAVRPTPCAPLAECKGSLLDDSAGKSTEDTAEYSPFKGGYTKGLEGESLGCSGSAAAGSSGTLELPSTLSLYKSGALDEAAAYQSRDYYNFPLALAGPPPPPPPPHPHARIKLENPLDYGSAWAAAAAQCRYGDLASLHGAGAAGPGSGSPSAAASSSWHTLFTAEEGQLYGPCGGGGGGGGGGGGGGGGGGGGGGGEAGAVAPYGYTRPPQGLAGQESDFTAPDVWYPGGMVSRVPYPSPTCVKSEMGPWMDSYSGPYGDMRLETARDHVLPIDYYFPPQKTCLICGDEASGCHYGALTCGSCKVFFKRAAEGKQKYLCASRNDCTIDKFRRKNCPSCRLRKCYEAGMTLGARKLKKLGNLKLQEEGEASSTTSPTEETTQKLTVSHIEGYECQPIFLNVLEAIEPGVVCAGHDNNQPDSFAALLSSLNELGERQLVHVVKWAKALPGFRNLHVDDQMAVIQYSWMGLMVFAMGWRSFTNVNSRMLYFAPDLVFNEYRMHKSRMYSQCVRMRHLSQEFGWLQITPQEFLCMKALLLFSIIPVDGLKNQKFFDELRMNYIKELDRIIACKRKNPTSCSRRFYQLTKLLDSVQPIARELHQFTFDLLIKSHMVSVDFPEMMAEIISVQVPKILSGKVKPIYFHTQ
Experiment: Androgen Receptor ELISA assay (PathScan AR ELISA) in VCaP cells: AR degradation, Dmax and DC50
Type: cell-based
Summary of the method: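 VCaP cells, 30,000/well, grown ≥3 days in phenol red-free RPMI with 5% charcoal-stripped FBS; compound added in 0.1% DMSO with 0.1 nM R1881, 7 half-log doses, 24 h. Lysate AR quantified by PathScan sandwich ELISA, HRP/TMB read at 450 nm, giving DC50 and Dmax.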

[1] = read-out: VCaP DC50; VCaP cells; Table 36
[2] = VCaP cells; Table 36; read-out: VCaP DC50
[3] = VCaP, VCaP cells; Table 36; read-out: VCaP Dmax (%)

Row | Compound | DC50 [2] | Dmax [3] | Dmax (VCaP, read-out: VCaP Dmax (%)) | DC50 [1]
1 | Cc1ncsc1-c1ccc([C@H](C)NC(=O)[C@@H]2C[C@@H](O)CN2C(=O)[C@@H](NC(=O)CN2C3CCC2CN(CCCc2ccc(C(=O)N[C@H]4C(C)(C)[C@H](Oc5ccc(C#N)c(Cl)c5)C4(C)C)cn2)C3)C(C)(C)C)cc1 [Example 839, N-((1r,3r)-3-(3-chloro-4-cyanophenoxy)-2,2,4,4-tetramethylcyclobutyl)-6-(3-(8-(2-(((S)-1-((2S, 4R)-4-hydroxy-2-(((S)-1-(4-(4-methylthiazol-5-yl)phenyl)ethyl)carbamoyl)pyrrolidin-1-yl)-3,3-dimethyl-1-oxobutan-2-yl)amino)-2-oxoethyl)-3,8-diazabicyclo[3.2.1]octan-3-yl)propyl) nicotinamide] | – | – | 51 to 70% | < 50 nM
2 | Cc1ncsc1-c1ccc([C@H](C)NC(=O)C2C[C@@H](O)CN2C(=O)C(NC(=O)CN2C3CCC2CN(CCCCc2ccc(C(=O)N[C@H]4C(C)(C)[C@H](Oc5ccc(C#N)c(Cl)c5)C4(C)C)cn2)C3)C(C)(C)C)cc1 (stereo partly drawn) [Example 840, N-((1r,3r)-3-(3-chloro-4-cyanophenoxy)-2,2,4,4-tetramethylcyclobutyl)-6-(4-(8-(2-(((S)-1-((2S, 4R)-4-hydroxy-2-(((S)-1-(4-(4-methylthiazol-5-yl)phenyl)ethyl)carbamoyl)pyrrolidin-1-yl)-3,3-dimethyl-1-oxobutan-2-yl)amino)-2-oxoethyl)-3,8-diazabicyclo[3.2.1]octan-3-yl)butyl) nicotinamide] | – | – | > 71% | < 50 nM
3 | Cc1ncsc1-c1ccc([C@H](CO)NC(=O)[C@@H]2C[C@@H](O)CN2C(=O)[C@@H](NC(=O)CN2CCN(CCC3CCN(c4ccc(C(=O)N[C@H]5C(C)(C)[C@H](Oc6ccc(C#N)c(Cl)c6)C5(C)C)cn4)C3)CC2)C(C)(C)C)cc1 (stereo partly drawn) [Example 841, N-((1r,3r)-3-(3-chloro-4-cyanophenoxy)-2,2,4,4-tetramethylcyclobutyl)-6-(3-(2-(4-(2-(((S)-1-((2S,4R)-4-hydroxy-2-(((R)-2-hydroxy-1-(4-(4-methylthiazol-5-yl)phenyl)ethyl)carbamoyl)pyrrolidin-1-yl)-3,3-dimethyl-1-oxobutan-2-yl)amino)-2-oxoethyl)piperazin-1-yl)ethyl)pyrrolidin-1-yl)nicotinamide] | < 50 nM | – | > 71% | –
4 | Cc1ncsc1-c1ccc([C@H](C)NC(=O)[C@@H]2C[C@@H](O)CN2C(=O)[C@@H](NC(=O)COC2CN(CCNc3ccc(C(=O)N[C@H]4C(C)(C)[C@H](Oc5ccc(C#N)c(Cl)c5)C4(C)C)cn3)C2)C(C)(C)C)cc1 [Example 842, N-((1r,3r)-3-(3-chloro-4-cyanophenoxy)-2,2,4,4-tetramethylcyclobutyl)-6-((2-(3-(2-(((S)-1-((2S,4R)-4-hydroxy-2-(((S)-1-(4-(4-methylthiazol-5-yl)phenyl)ethyl)carbamoyl)pyrrolidin-1-yl)-3,3-dimethyl-1-oxobutan-2-yl)amino)-2-oxoethoxy)azetidin-1-yl)ethyl)amino) nicotinamide] | < 50 nM | 26 to 50% | – | –
5 | Cc1ncsc1-c1ccc([C@H](C)NC(=O)C2C[C@@H](O)CN2C(=O)C(NC(=O)CN2CCN(CCN3CCN(c4ccc(C(=O)NC5C(C)(C)C(Oc6ccc(C#N)c(Cl)c6)C5(C)C)cn4)C[C@H]3CO)CC2)C(C)(C)C)cc1 (stereo partly drawn) [Example 843, N-((1r,3S)-3-(3-chloro-4-cyanophenoxy)-2,2,4,4-tetramethylcyclobutyl)-6-((S)-4-(2-(4-(2-(((S)-1-((2S,4R)-4-hydroxy-2-(((S)-1-(4-(4-methylthiazol-5-yl)phenyl)ethyl)carbamoyl)pyrrolidin-1-yl)-3,3-dimethyl-1-oxobutan-2-yl)amino)-2-oxoethyl)piperazin-1-yl)ethyl)-3-(hydroxymethyl)piperazin-1-yl) nicotinamide] | < 50 nM | 51 to 70% | – | –
6 | Cc1ncsc1-c1ccc([C@H](C)NC(=O)[C@@H]2C[C@@H](O)CN2C(=O)[C@@H](NC(=O)CO[C@H]2C[C@@H](N3CCN(c4ccc(C(=O)N[C@H]5C(C)(C)[C@H](Oc6ccc(C#N)c(Cl)c6)C5(C)C)cn4)CC3)C2)C(C)(C)C)cc1 [Example 845, N-((1r,3R)-3-(3-chloro-4-cyanophenoxy)-2,2,4,4-tetramethylcyclobutyl)-6-(4-((1R,3S)-3-(2-(((S)-1-((2S,4R)-4-hydroxy-2-(((S)-1-(4-(4-methylthiazol-5-yl)phenyl)ethyl)carbamoyl)pyrrolidin-1-yl)-3,3-dimethyl-1-oxobutan-2-yl)amino)-2-oxoethoxy)cyclobutyl)piperazin-1-yl)nicotinamide] | < 50 nM | > 71% | – | –
7 | Cc1ncsc1-c1ccc([C@H](CO)NC(=O)[C@@H]2C[C@@H](O)CN2C(=O)[C@@H](NC(=O)CN2CCC(CN3CCN(c4ccc(C(=O)N[C@H]5C(C)(C)[C@H](Oc6ccc(C#N)c(Cl)c6)C5(C)C)cn4)CC3)CC2)C(C)(C)C)cc1 [Example 847, N-((1r,3r)-3-(3-chloro-4-cyanophenoxy)-2,2,4,4-tetramethylcyclobutyl)-6-(4-((1-(2-(((S)-1-((2S,4R)-4-hydroxy-2-(((R)-2-hydroxy-1-(4-(4-methylthiazol-5-yl)phenyl)ethyl)carbamoyl)pyrrolidin-1-yl)-3,3-dimethyl-1-oxobutan-2-yl)amino)-2-oxoethyl)piperidin-4-yl)methyl)piperazin-1-yl)nicotinamide] | < 50 nM | – | > 71% | –

Now from value to compound, other results behind:

Row | DC50 [2] | Dmax [3] | Compound | Dmax (VCaP, read-out: VCaP Dmax (%)) | DC50 [1]
8 | < 50 nM | > 71% | Cc1ncsc1-c1ccc([C@H](C)NC(=O)[C@@H]2C[C@@H](O)CN2C(=O)[C@@H](NC(=O)COC2CC(N3CCN(c4ccc(C(=O)NC5C(C)(C)C(Oc6ccc(C#N)c(Cl)c6)C5(C)C)cn4)CC3)C2)C(C)(C)C)cc1 (stereo partly drawn) [Example 846, N-((1r,3R)-3-(3-chloro-4-cyanophenoxy)-2,2,4,4-tetramethylcyclobutyl)-6-(4-((1S,3R)-3-(2-(((S)-1-((2S,4R)-4-hydroxy-2-(((S)-1-(4-(4-methylthiazol-5-yl)phenyl)ethyl)carbamoyl)pyrrolidin-1-yl)-3,3-dimethyl-1-oxobutan-2-yl)amino)-2-oxoethoxy)cyclobutyl)piperazin-1-yl)nicotinamide] | – | –
9 | < 50 nM | > 71% | Cc1ncsc1-c1ccc([C@H](C)NC(=O)[C@@H]2CC(O)CN2C(=O)[C@H](C(C)C)N2Cc3cc(OCCN4CCN(c5ccc(C(=O)N[C@H]6C(C)(C)[C@H](Oc7ccc(C#N)c(Cl)c7)C6(C)C)cn5)CC4)ccc3C2=O)cc1 (stereo partly drawn) [Example 848, N-((1r,3r)-3-(3-chloro-4-cyanophenoxy)-2,2,4,4-tetramethylcyclobutyl)-6-(4-(2-((2-((S)-1-((2S, 4R)-4-hydroxy-2-(((S)-1-(4-(4-methylthiazol-5-yl)phenyl)ethyl)carbamoyl)pyrrolidin-1-yl)-3-methyl-1-oxobutan-2-yl)-1-oxoisoindolin-5-yl)oxy)ethyl)piperazin-1-yl)nicotinamide] | – | –
10 | < 50 nM | 51 to 70% | Cc1ncsc1-c1ccc([C@H](C)NC(=O)[C@@H]2C[C@@H](O)CN2C(=O)[C@@H](NC(=O)COCCN2CCN(c3ccc(C(=O)N[C@H]4CC(Oc5ccc(C#N)c(Cl)c5)C4(C)C)cn3)CC2)C(C)(C)C)cc1 (stereo partly drawn) [Example 849, N-((1S)-3-(3-chloro-4-cyanophenoxy)-2,2-dimethylcyclobutyl)-6-(4-(2-(2-(((S)-1-((2S, 4R)-4-hydroxy-2-(((S)-1-(4-(4-methylthiazol-5-yl)phenyl)ethyl)carbamoyl)pyrrolidin-1-yl)-3,3-dimethyl-1-oxobutan-2-yl)amino)-2-oxoethoxy)ethyl)piperazin-1-yl)nicotinamide] | – | –
11 | < 50 nM | 51 to 70% | Cc1ncsc1-c1ccc([C@H](C)NC(=O)[C@@H]2C[C@@H](O)CN2C(=O)[C@@H](NC(=O)COCCN2CCN(c3ccc(C(=O)N[C@H]4C[C@@H](Oc5ccc(C#N)c(Cl)c5)C4(C)C)cn3)CC2)C(C)(C)C)cc1 [Example 850, N-((1S,3R)-3-(3-chloro-4-cyanophenoxy)-2,2-dimethylcyclobutyl)-6-(4-(2-(2-(((S)-1-((2S, 4R)-4-hydroxy-2-(((S)-1-(4-(4-methylthiazol-5-yl)phenyl)ethyl)carbamoyl)pyrrolidin-1-yl)-3,3-dimethyl-1-oxobutan-2-yl)amino)-2-oxoethoxy)ethyl)piperazin-1-yl) nicotinamide] | – | –
